# Results published in US20260000637A1, “METHOD OF IMPROVING SLEEP” (VANDA PHARMACEUTICALS INC., priority 2019, published 2026).
# Values joined by “and” are separate entries in the source; they are usually repeats but may differ in a detail not shown here. Equal values may be shown once.
# Key:
# [1] = test system: individuals diagnosed with DSWPD and having at least one copy of the rs184039278 CRY1 allele; assay: Sleep parameters after 20 mg tasimelteon before bedtime, by rs184039278 CRY1 genotype; type: in vivo, human
# Procedure: In a study of genetic variations associated with sleep-wake patterns, Applicant found a significant association between the rs184039278 CRY1 allele and efficacy of treatment with tasimelteon. […] Both groups were treated with 20 mg of tasimelteon before bed.
# [2] = test system: totally blind patients with Non-24; details: cited from earlier work
# [3] = individual DSWPD patients, rs184039278 CRY1 G/T, 20 mg tasimelteon prior to bedtime
smiles,measurement,setting,value
"CCC(=O)NC[C@@H]1C[C@H]1c1cccc2c1CCO2 [tasimelteon, Tasimelteon]","total sleep time (TST), WT versus MT individuals (FIG. 1)","[1]; WT (no rs184039278 CRY1 allele) compared to MT (at least one copy), both 20 mg tasimelteon before bed",both lower and more variable than for MT individuals
same,Total Sleep Time In First Two-Thirds Of Night,[1]; [3],308 min and 293.5 min
same,percentage of total sleep time (sleep efficiency),[1]; [3],96 and 91
same,"sleep parameters (LPS, sleep efficiency, REM sleep duration, TST, WASO)","[1]; individuals having at least one copy of the rs184039278 CRY1 allele, tasimelteon before bedtime",improvements in one or more sleep parameters
same,efficacy on circadian timing system and sleep,[2],phase advance the circadian timing system (CTS) and to improve nighttime sleep and decrease daytime sleep
